In ChEMBL document CHEMBL1201862, “PubChem BioAssay data set” (2004):
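Interpolation was linear, between the two tested concentrations surrounding the appropriate level; five concentrations were tested over 48 hours in 96-well plates. GI50 is the concentration that inhibits growth by half.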 Activity calls are given as the source filed them. No stated cut-off is given here; in the data, active = GI50 up to about 1.1 µM and inactive = higher.

How the values were obtained:
Assay in all cases: NCI tumour cell line growth inhibition, 48 h
A549 = system: A549
COLO 205 = system: COLO 205
HCC 2998 = system: HCC 2998
HCT-15 = system: HCT-15
HL-60 = system: HL-60
HOP-92 = system: HOP-92
HT-29 = system: HT-29
Hs-578T = system: Hs-578T
M14 = system: M14
MCF7 = system: MCF7
NCI-H226 = system: NCI-H226
NCI-H522 = system: NCI-H522
NCI/ADR-RES = system: NCI/ADR-RES
OVCAR-8 = system: OVCAR-8
RPMI-8226 = system: RPMI-8226
SK-MEL-5 = system: SK-MEL-5
SK-OV-3 = system: SK-OV-3
SN12C = system: SN12C
SNB-75 = system: SNB-75
U-251 = system: U-251

| Structure (SMILES) | GI50 (A549) | GI50 (COLO 205) | GI50 (HCC 2998) | GI50 (HCT-15) | GI50 (HL-60) | GI50 (HOP-92) | GI50 (HT-29) | GI50 (Hs-578T) | GI50 (M14) | GI50 (MCF7) | GI50 (NCI-H226) | GI50 (NCI-H522) | GI50 (NCI/ADR-RES) | GI50 (OVCAR-8) | GI50 (RPMI-8226) | GI50 (SK-MEL-5) | GI50 (SK-OV-3) | GI50 (SN12C) | GI50 (SNB-75) | GI50 (U-251) |
| --- | --- | --- | --- | --- | --- | --- | --- | --- | --- | --- | --- | --- | --- | --- | --- | --- | --- | --- | --- | --- |
| CC/C(N)=N\NC(=O)OC(C)(C)C | > 100 µM (inactive) | > 100 µM (inactive) | > 100 µM (inactive) | > 100 µM | > 100 µM (inactive) | > 100 µM (inactive) | > 100 µM (inactive) | > 100 µM (inactive) | > 100 µM (inactive) | > 100 µM (inactive) | > 100 µM (inactive) | > 100 µM (inactive) | > 100 µM (inactive) | > 100 µM (inactive) | > 100 µM (inactive) | > 100 µM (inactive) | > 100 µM (inactive) | > 100 µM (inactive) | > 100 µM (inactive) | > 100 µM (inactive) |
| O=C1Nc2cc([N+](=O)[O-])ccc2C(=O)N2CCC[C@@H]12 | > 100 µM (inactive) | > 100 µM (inactive) | > 100 µM (inactive) | > 100 µM | > 100 µM (inactive) | > 100 µM (inactive) | > 100 µM (inactive) | > 100 µM (inactive) | > 100 µM (inactive) | > 100 µM (inactive) | > 100 µM (inactive) | > 100 µM (inactive) | > 100 µM (inactive) | > 100 µM (inactive) | > 100 µM (inactive) | > 100 µM (inactive) | > 100 µM (inactive) | > 100 µM (inactive) | > 100 µM (inactive) | > 100 µM (inactive) |
| CCOP(=O)(OCC)c1c(C(=O)OC)cc(=O)[nH]c1-c1ccc(C)cc1 | 15.2 µM (inactive) | 6.5 µM (inactive) | 18.1 µM (inactive) | 9.73 µM | 1.23 µM (inactive) | 2.75 µM (inactive) | 14.4 µM (inactive) | 17.9 µM (inactive) | 11.6 µM (inactive) | 13.4 µM (inactive) | 9.31 µM (inactive) | 0.968 µM (active) | 19.5 µM (inactive) | 17.7 µM (inactive) | 5.27 µM (inactive) | 13.3 µM (inactive) | 22.8 µM (inactive) | 22.4 µM (inactive) | 12.8 µM (inactive) | 13.1 µM (inactive) |
| C1CCN2CC34CC(CC5CCCN(C6CCCC3N6)C54)C2C1 (stereo not given) | > 100 µM (inactive) | > 100 µM (inactive) | > 100 µM (inactive) | > 100 µM | > 100 µM (inactive) | > 100 µM (inactive) | > 100 µM (inactive) | > 100 µM (inactive) | > 100 µM (inactive) | > 100 µM (inactive) | > 100 µM (inactive) | > 100 µM (inactive) | > 100 µM (inactive) | > 100 µM (inactive) | > 100 µM (inactive) | > 100 µM (inactive) | > 100 µM (inactive) | > 100 µM (inactive) | > 100 µM (inactive) | > 100 µM (inactive) |
| COc1ccc(CC2NC(=O)/C=C/CC(C(C)C3OC3c3ccccc3)OC(=O)C(CC(C)C)OC(=O)C(C)CNC2=O)cc1Cl (stereo not given) | < 1e-05 µM (active) | < 1e-05 µM (active) | 3.07e-05 µM (active) | 1.06e-05 µM | < 1e-05 µM (active) | 0.000205 µM (active) | < 1e-05 µM (active) | 1.78e-05 µM (active) | 1.04e-05 µM (active) | 1.34e-05 µM (active) | 2.4e-05 µM (active) | < 1e-05 µM (active) | 4.81e-05 µM (active) | 2.32e-05 µM (active) | 3.62e-05 µM (active) | < 1e-05 µM (active) | 6.68e-05 µM (active) | 2.38e-05 µM (active) | 2.83e-05 µM (active) | 2.56e-05 µM (active) |
| CCCCCCCCCc1c(Cl)nc(Cl)nc1Cl | 20.9 µM (inactive) | 19.5 µM (inactive) | 3.74 µM (inactive) | 12.3 µM | 5.05 µM (inactive) | 15.3 µM (inactive) | 17.5 µM (inactive) | 29.2 µM (inactive) | 3.48 µM (inactive) | 18.4 µM (inactive) | 5.62 µM (inactive) | 3.67 µM (inactive) | 18.8 µM (inactive) | 16.1 µM (inactive) | 14.6 µM (inactive) | 11.7 µM (inactive) | 20.4 µM (inactive) | 12.9 µM (inactive) | 15 µM (inactive) | 18.9 µM (inactive) |
| N=c1c2c(=S)n(-c3ccccc3)c(=S)n(-c3ccccc3)c2nc(SCCN2CCOCC2)n1-c1ccccc1 | 1.78 µM (inactive) | 1.99 µM (inactive) | 1.77 µM (inactive) | 1.91 µM | 1.41 µM (inactive) | 1.82 µM (inactive) | 2.05 µM (inactive) | 2.67 µM (inactive) | 1.93 µM (inactive) | 1.35 µM (inactive) | 7.13 µM (inactive) | 1.67 µM (inactive) | 3.67 µM (inactive) | 2.06 µM (inactive) | 1.04 µM (active) | 2.73 µM (inactive) | 6.1 µM (inactive) | 2.06 µM (inactive) | 2.07 µM (inactive) | 1.99 µM (inactive) |
| COc1cc(C2CC(C)(Nc3ccccc3)Oc3cc4c(cc32)OCO4)cc(OC)c1OC (stereo not given) | 2.14 µM (inactive) | 0.839 µM (active) | 0.729 µM (active) | 0.161 µM | 0.0906 µM (active) | 15.8 µM (inactive) | 0.182 µM (active) | 0.105 µM (active) | 0.223 µM (active) | 0.135 µM (active) | 0.855 µM (active) | 0.296 µM (active) | 0.277 µM (active) | 0.483 µM (active) | 0.263 µM (active) | 0.153 µM (active) | 0.394 µM (active) | 0.247 µM (active) | 3.49 µM (inactive) | 0.279 µM (active) |
| COc1cc(OC)c2c(=O)cc(-c3ccccc3F)[nH]c2c1 | 38.5 µM (inactive) | 75.9 µM (inactive) | 18.6 µM (inactive) | 28.6 µM | > 100 µM (inactive) | > 100 µM (inactive) | 38.2 µM (inactive) | > 100 µM (inactive) | 39.1 µM (inactive) | 54.5 µM (inactive) | 23.7 µM (inactive) | 27 µM (inactive) | 35.3 µM (inactive) | 51.4 µM (inactive) | 57.8 µM (inactive) | 30.3 µM (inactive) | 91.2 µM (inactive) | > 100 µM (inactive) | 33.9 µM (inactive) | 35.8 µM (inactive) |
| COc1ccc([C@H]2CC(=O)C[C@H](c3ccc(OC)cc3)C23C(=O)c2ccccc2C3=O)cc1 | 5.97 µM (inactive) | 2.64 µM (inactive) | 8.55 µM (inactive) | 4.02 µM | 2.33 µM (inactive) | 5.74 µM (inactive) | 3.46 µM (inactive) | 4.78 µM (inactive) | 6.34 µM (inactive) | 7.06 µM (inactive) | 6.11 µM (inactive) | 3.16 µM (inactive) | 1.94 µM (inactive) | 9.75 µM (inactive) | 4.54 µM (inactive) | 3.46 µM (inactive) | 3.97 µM (inactive) | 7.57 µM (inactive) | 2.9 µM (inactive) | 4.24 µM (inactive) |
